One data set concerns the target T1, ROCK2 kinase (Homo sapiens, UniProt O75116).
T1 construct: purchased Invitrogen PV3759
As to the kind of experiment: In vitro evaluation of ROCK2 kinase activity (HTRF KinEASE-STK time-resolved fluorometric assay). It counts as biochemical. The conditions noted are these: ROCK2 kinase 0.4 ng/μL, ATP 6.739 μM. The protocol: ROCK2 activity screening. ROCK2 activity was detected using a 96-well (Cisbio) time-resolved fluorometric assay. The assay for ROCK2 was performed in the following assay buffer: 5 mM MgCl2 (Sigma), 1 mM DTT (Sigma) and 1× kinase buffer. The kinase buffer was used for dilution. 7.5 μL of ROCK2 kinase (Invitrogen, PV3759) was added to a 96-well microplate to reach a final concentration of 0.4 ng/μL, and then 0.25 μL of test compound (DMSO content: 1% (volume fraction)) was added. The mixture was incubated at room temperature for 0.5 h. To start the reaction, the kinase buffer was used to mix ATP (Aladdin) and the substrate STK-substrate 2-biotin. 7.5 μL of the mixed solution was added to the microplate to reach final concentrations of 6.739 μM and 1 μM. The resulting mixture was incubated at room temperature for 2 h. 5 mL of detection buffer was mixed with STK antibody-Cryptate, and then an appropriate volume of the mixture was mixed with an equal volume of streptavidin-XL665. 10 μL of the resulting mixture was added to the microplate to stop the reaction. After further incubation for about 1 h, the microplate was read on a Molecular Devices SpectraMax i3x multifunctional microplate reader. The kinase buffer, the STK-substrate 2-biotin, the detection buffer, the STK antibody-Cryptate, and the streptavidin-XL665 were all from HTRF KinEASE-STK kit (Cisbio, 1000 tests, 61GSTXLA).
For orientation: In TR-FRET formats the signal depends on donor and acceptor labels being close together.

Data set [1] can be described thus: In vitro cytotoxicity assay in HepG2 cells using the CCK-8 method. In kind it is cell-based. The conditions noted are these: human. The protocol:
In vitro cytotoxicity assay for the compounds disclosed herein was performed in HepG2 cells using the CCK-8 method. HepG2 cells (Beina Bio) in the logarithmic growth phase were collected, the concentration of cell suspension was adjusted, and then the cells were plated on a 96-well cell culture plate at 50,000 cells/well. The cells were then incubated overnight in a cell incubator (5%, 37° C.), and after 80-90% cell confluence was achieved, test compound at each concentration gradient or vehicle (DMSO) was added after medium change. The resulting mixture was incubated in the cell incubator (5%, 37° C.) for 48 h. After the treatment, the medium in the plate was discarded. The plate was washed twice with PBS, added with CCK-8 working solution (Beyotime) at 100 μL per well, and then incubated at 37° C. for 1.5 h in the dark. Absorbance at OD450 nm mil was measured for each well on a microplate reader, and CC50 value of each compound was analyzed and calculated.

A further data set concerns the target T2, ROCK1 kinase (Homo sapiens, UniProt Q13464).
T2 construct: purchased Invitrogen
As to the kind of experiment: In vitro evaluation of ROCK1 kinase selectivity (HTRF KinEASE-STK time-resolved fluorometric assay). It counts as biochemical. As to conditions: ROCK1 kinase 0.4 ng/μL, ATP 3.53 μM. The procedure:
ROCK1 activity was detected using a 96-well (Cisbio) time-resolved fluorometric assay. The assay for ROCK1 was performed in the following assay buffer: 5 mM MgCl2 (Sigma), 1 mM DTT (Sigma) and 1× kinase buffer. The kinase buffer was used for dilution. 7.5 μL of ROCK1 kinase (Invitrogen) was added to a 96-well microplate to reach a final concentration of 0.4 ng/μL, and then 0.25 μL of test compound (DMSO content: 1%) was added. The mixture was incubated at room temperature for 0.5 h. To start the reaction, the kinase buffer was also used to mix ATP (Aladdin) and the substrate STK-substrate 2-biotin. 7.5 μL of the mixed solution was added to the microplate to reach final concentrations of 3.53 μM and 1 μM. The resulting mixture was incubated at room temperature for 2 h. 5 mL of detection buffer was mixed with STK antibody-Cryptate, and then an appropriate volume of the mixture was mixed with an equal volume of streptavidin-XL665. 10 μL of the resulting mixture was added to stop the reaction. After further incubation for about 1 h, the microplate was read on a Molecular Devices SpectraMax i3x multifunctional microplate reader. The kinase buffer, the STK-substrate 2-biotin, the detection buffer, the STK antibody-Cryptate, and the streptavidin-XL665 were all from HTRF KinEASE-STK kit (Cisbio, 1000 tests, 61GSTXLA).

Data set [2] in a line: In vitro metabolic stability, rat liver microsome incubation. It counts as in vitro ADME. As to conditions: liver microsomes, 1 mg/mL protein, 37° C., read-out: T1/2 in rat liver microsome. The protocol:
(§1) The in vitro metabolic stability of the compounds disclosed herein was determined through incubation of liver microsomes of various species. A proper amount of test compound was added into a liver microsome reaction system (1 mg/mL liver microsome protein, 25 U/mL glucose-6 phosphate dehydrogenase, 1 mM NADP, 6 mM D-glucose 6-phosphate and 5 mM MgCl2), and then the mixture was incubated in a water bath kettle at 37° C. to start reaction. At each time point, 100 μL of the reaction liquid was added into a centrifuge tube containing 400 μL of internal standard working solution (containing a 200 ng/mL solution of dexamethasone, diclofenac, tolbutamide and labetalol in acetonitrile) precooled at 0° C. so as to stop the reaction, and the mixture was then centrifuged at 10,000 g for 10 min at 4° C. The supernatant was collected for LC-MS assay so as to obtain the values of in vitro metabolic half-life of the test compounds in liver microsomes of various species.
(Liver microsomes are vesicles of endoplasmic reticulum, rich in cytochrome P450 enzymes.)

Data set [3] in a line: In vitro metabolic stability, human liver microsome incubation. It counts as in vitro ADME. The conditions noted are these: liver microsomes, 1 mg/mL protein, 37° C., read-out: T1/2 in human liver microsome. The procedure:
as §1

Data set [4] in a line: In vitro metabolic stability, guinea pig liver microsome incubation. It counts as in vitro ADME. As to conditions: liver microsomes, 1 mg/mL protein, 37° C., read-out: T1/2 in guinea pig liver microsome. The protocol: as §1

The record followed here is patent US20230257376A1, “ROCK INHIBITOR, AND PREPARATION METHOD THEREFOR AND USE THEREOF” (WUHAN LL SCIENCE AND TECHNOLOGY DEVELOPMENT CO., LTD., priority 2020, published 2023).

Each structure is given as a SMILES string. Where only a bound is given, the exact number is not on record here.

T1 sequence (O75116 whole entry): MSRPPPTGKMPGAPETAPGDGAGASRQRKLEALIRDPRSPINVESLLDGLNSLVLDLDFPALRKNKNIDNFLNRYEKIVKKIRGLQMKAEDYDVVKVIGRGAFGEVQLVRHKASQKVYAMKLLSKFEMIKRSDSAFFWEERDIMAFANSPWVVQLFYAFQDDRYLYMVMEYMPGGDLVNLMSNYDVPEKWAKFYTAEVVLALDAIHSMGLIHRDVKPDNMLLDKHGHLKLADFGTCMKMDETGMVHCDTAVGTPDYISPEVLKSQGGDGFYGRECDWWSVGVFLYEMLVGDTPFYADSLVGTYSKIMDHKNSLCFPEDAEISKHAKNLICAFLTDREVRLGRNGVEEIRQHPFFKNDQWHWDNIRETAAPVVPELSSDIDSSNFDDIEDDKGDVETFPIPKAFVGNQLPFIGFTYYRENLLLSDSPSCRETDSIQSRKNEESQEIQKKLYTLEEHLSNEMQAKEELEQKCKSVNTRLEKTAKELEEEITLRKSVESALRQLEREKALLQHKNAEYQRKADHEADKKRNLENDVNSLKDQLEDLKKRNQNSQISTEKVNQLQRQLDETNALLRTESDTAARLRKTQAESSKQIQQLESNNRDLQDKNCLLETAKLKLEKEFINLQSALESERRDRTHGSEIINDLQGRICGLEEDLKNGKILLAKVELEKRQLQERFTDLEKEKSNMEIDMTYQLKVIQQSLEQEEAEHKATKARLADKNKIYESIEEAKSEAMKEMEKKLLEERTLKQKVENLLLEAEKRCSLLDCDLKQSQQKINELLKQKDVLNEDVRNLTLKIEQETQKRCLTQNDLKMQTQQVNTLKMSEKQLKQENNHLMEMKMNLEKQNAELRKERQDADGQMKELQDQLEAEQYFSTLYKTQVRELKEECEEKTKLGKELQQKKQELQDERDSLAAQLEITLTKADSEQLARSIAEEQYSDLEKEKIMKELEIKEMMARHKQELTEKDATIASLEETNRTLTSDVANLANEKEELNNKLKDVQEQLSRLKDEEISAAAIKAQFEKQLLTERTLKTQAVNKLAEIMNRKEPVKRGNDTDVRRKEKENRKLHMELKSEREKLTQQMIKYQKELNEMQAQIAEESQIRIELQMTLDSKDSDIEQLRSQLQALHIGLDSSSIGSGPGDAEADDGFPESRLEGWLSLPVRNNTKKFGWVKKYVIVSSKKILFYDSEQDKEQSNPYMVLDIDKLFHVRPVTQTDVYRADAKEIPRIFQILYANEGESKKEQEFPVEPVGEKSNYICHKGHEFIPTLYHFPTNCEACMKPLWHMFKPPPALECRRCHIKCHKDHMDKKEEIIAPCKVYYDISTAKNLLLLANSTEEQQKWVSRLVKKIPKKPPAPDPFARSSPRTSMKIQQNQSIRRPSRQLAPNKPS
T2 sequence (Q13464 whole entry): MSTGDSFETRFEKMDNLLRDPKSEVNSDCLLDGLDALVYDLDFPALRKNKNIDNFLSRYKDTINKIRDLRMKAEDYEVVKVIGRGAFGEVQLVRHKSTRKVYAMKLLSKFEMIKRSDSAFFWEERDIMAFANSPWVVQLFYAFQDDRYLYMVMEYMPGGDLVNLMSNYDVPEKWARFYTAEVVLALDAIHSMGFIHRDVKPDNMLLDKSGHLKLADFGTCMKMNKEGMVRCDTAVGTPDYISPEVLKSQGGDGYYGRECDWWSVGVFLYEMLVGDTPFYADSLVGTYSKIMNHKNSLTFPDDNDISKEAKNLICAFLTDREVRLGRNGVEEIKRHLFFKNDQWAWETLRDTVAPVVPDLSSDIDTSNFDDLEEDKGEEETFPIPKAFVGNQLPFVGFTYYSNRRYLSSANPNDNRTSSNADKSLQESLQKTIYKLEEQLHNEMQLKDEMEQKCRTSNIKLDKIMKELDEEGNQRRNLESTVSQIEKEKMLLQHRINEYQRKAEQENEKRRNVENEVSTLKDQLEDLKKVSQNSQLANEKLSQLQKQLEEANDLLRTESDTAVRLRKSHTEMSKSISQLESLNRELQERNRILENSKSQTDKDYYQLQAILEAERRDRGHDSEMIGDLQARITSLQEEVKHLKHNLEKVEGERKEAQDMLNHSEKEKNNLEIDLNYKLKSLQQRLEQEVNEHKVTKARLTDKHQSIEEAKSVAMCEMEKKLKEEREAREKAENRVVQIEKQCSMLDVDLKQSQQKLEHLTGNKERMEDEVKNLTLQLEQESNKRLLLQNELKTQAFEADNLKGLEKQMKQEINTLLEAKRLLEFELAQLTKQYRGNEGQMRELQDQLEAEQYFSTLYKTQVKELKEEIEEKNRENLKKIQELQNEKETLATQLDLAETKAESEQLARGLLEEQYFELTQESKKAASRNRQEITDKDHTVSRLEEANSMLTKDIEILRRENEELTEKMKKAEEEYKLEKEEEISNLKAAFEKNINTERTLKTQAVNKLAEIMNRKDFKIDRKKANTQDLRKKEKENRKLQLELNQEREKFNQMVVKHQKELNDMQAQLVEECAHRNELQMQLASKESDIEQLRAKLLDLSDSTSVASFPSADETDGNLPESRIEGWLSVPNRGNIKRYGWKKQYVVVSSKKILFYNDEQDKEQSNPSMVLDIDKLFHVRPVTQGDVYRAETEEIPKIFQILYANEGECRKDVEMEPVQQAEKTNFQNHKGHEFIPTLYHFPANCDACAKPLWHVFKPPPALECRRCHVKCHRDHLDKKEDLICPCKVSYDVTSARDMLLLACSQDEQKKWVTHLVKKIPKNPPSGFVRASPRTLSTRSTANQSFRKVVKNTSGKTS

By IC50 is commonly meant the point on the concentration scale where inhibition reaches its midpoint. Usually CC50 stands for the concentration giving 50% cytotoxicity. Low readings indicate harm at low concentration, high ones better tolerance by the cells. For the molecule `O=C(c1cc2c(n1C(F)F)CN(c1ncnc(Nc3ccc(-c4cn[nH]c4)cc3)n1)CC2)N1CC(F)(F)C1` [Compound L045, (6-(4-((4-(1H-pyrazol-4-yl)phenyl)amino)-1,3,5-triazin-2-yl)-1-(difluoromethyl)-4,5,6,7-tetrahydro-1H-pyrrolo[2,3-c]pyridin-2-yl)(3,3-difluoroazetidin-1-yl)methanone], the IC50 against ROCK2 kinase and at ROCK1 kinase was more than 4500 nM throughout. Also, the half-maximal cytotoxic concentration (CC50) at 48 h in data set [1] is more than 100000 nM.
As for `CCc1nc(Nc2ccc(-c3cn[nH]c3)cc2)nc(N2CCc3cc(C(=O)N4CC(F)(F)C4)n(C)c3C2)n1` [Compound L048, (6-(4-((4-(1H-pyrazol-4-yl)phenyl)amino)-6-ethyl-1,3,5-triazin-2-yl)-1-methyl-4,5,6,7-tetrahydro-1H-pyrrolo[2,3-c]pyridin-2-yl)(3,3-difluoroazetidin-1-yl)methanone], the IC50 on ROCK2 kinase is 500 to 4500 nM; against ROCK1 kinase it was more than 4500 nM. Also, the CC50 at 48 h in data set [1] came out at 100000 nM.
Regarding `Cn1c(C(=O)N2CC(F)(F)C2)cc2c1CN(c1nc3c(c(Nc4ccc(-c5cn[nH]c5)cc4)n1)COCC3)CC2` [Compound L031], the figures for the IC50 at ROCK2 kinase and on ROCK1 kinase were not above 50 nM and more than 4500 nM, respectively. The molecule also displayed a CC50 at 48 h in data set [1] of 33400 nM.
Regarding `Cn1c(C(=O)N2CC(F)(F)C2)cc2c1CN(c1nccc(Nc3ccc(-c4cn[nH]c4)cc3)n1)CC2(C)C` [Compound L020, (6-(4-((4-(1H-pyrazol-4-yl)phenyl)amino)pyrimidin-2-yl)-1,4,4-trimethyl-4,5,6,7-tetrahydro-1H-pyrrolo[2,3-c]pyridin-2-yl)(3,3-difluoroazetidin-1-yl)methanone], the concentration for half-maximal inhibition (IC50) on ROCK2 kinase was 50 to 500 nM; on ROCK1 kinase, more than 4500 nM.
As to `Cn1c(C(=O)N2CC(F)(F)C2)cc2c1CN(c1ncc(C(F)(F)F)c(Nc3ccc(-c4cn[nH]c4)cc3)n1)CC2` [Compound L035, (6-(4-((4-(1H-pyrazol-4-yl)phenyl)amino)-5-(trifluoromethyl)pyrimidin-2-yl)-1-methyl-4,5,6,7-tetrahydro-1H-pyrrolo[2,3-c]pyridin-2-yl)(3,3-difluoroazetidin-1-yl)methanone], the IC50 is 50 to 500 nM against ROCK2 kinase and more than 4500 nM at ROCK1 kinase.
Consider `Cn1c(C(=O)N2CC(F)(F)C2)cc2c1CN(c1nc3c(c(Nc4ccc(-c5cn[nH]c5)cc4)n1)CCC3)CC2` [Compound L053, (6-(4-((4-(1H-pyrazol-4-yl)phenyl)amino)-6,7-dihydro-5H-cyclopenta[d]pyrimidin-2-yl)-1-methyl-4,5,6,7-tetrahydro-1H-pyrrolo[2,3-c]pyridin-2-yl)(3,3-difluoroazetidin-1-yl)methanone], for which the IC50 on ROCK2 kinase was 50 to 500 nM; against ROCK1 kinase it was more than 4500 nM.
In the same order, the values of `Cn1c(C(=O)N2CC(F)(F)C2)cc2c1CN(c1nnc(Nc3ccc(-c4cn[nH]c4)cc3)o1)CC2` [Compound L046, (6-(5-((4-(1H-pyrazol-4-yl)phenyl)amino)-1,3,4-oxadiazol-2-yl)-1-methyl-4,5,6,7-tetrahydro-1H-pyrrolo[2,3-c]pyridin-2-yl)(3,3-difluoroazetidin-1-yl)methanone] are more than 4500 nM and more than 4500 nM.
With `Cn1c(C(=O)NC2CCN(c3ccncc3Cl)CC2)cc2c1CN(c1nccc(Nc3ccc(-c4cn[nH]c4)cc3)n1)CC2` [Compound L021], the IC50 on ROCK2 kinase was 50 to 500 nM; against ROCK1 kinase it was more than 4500 nM.
For `Cn1c(C(=O)Nc2ccnnc2)cc2c1CN(c1nccc(Nc3ccc(-c4cn[nH]c4)cc3)n1)CC2` [Compound L012, 6-(4-((4-(1H-pyrazol-4-yl)phenyl)amino)pyrimidin-2-yl)-1-methyl-N-(pyridazin-4-yl)-4,5,6,7-tetrahydro-1H-pyrrolo[2,3-c]pyridine-2-carboxamide], the IC50 at ROCK2 kinase and against ROCK1 kinase was 50 to 500 nM each time.
Take `Cn1c(C(=O)N2CC(F)(F)C2)cc2c1CN(c1nc(Nc3ccc(-c4cn[nH]c4)cc3)nc(C3COC3)n1)CC2` [Compound L052, (6-(4-((4-(1H-pyrazol-4-yl)phenyl)amino)-6-(oxetan-3-yl)-1,3,5-triazin-2-yl)-1-methyl-4,5,6,7-tetrahydro-1H-pyrrolo[2,3-c]pyridin-2-yl)(3,3-difluoroazetidin-1-yl)methanone]: the values for the IC50 on ROCK2 kinase and against ROCK1 kinase were 50 to 500 nM and more than 4500 nM, respectively.
On to `Cn1c(C(=O)N2CC(F)(F)C2)cc2c1CN(c1nccc(Nc3ccc4[nH]ncc4c3)n1)CC2` [Compound L006, (6-(4-((1H-indazol-5-yl)amino)pyrimidin-2-yl)-1-methyl-4,5,6,7-tetrahydro-1H-pyrrol[2,3-c]pyridin-2-yl)(3,3-difluoroazetidin-1-yl)methanone], for which the IC50 on ROCK2 kinase was in the range of 50 to 500 nM; at ROCK1 kinase, 500 to 4500 nM.
In the case of `O=C(c1cc2c(n1C(F)F)CN(c1ncc(F)c(Nc3ccc(-c4cn[nH]c4)cc3)n1)CC2)N1CC(F)(F)C1` [Compound L047, (6-(4-((4-(1H-pyrazol-4-yl)phenyl)amino)-5-fluoropyrimidin-2-yl)-1-(difluoromethyl)-4,5,6,7-tetrahydro-1H-pyrrolo[2,3-c]pyridin-2-yl)(3,3-difluoroazetidin-1-yl)methanone], the IC50 against ROCK2 kinase and against ROCK1 kinase was more than 4500 nM each time. In data set [1], this molecule came in with a half-maximal cytotoxic concentration (CC50) at 48 h of more than 100000 nM.
Consider `Cn1c(C(=O)N2CC(F)(F)C2)cc2c1CN(c1ncc(Cl)c(Nc3ccc(-c4c[nH]nc4F)cc3)n1)CC2` [Compound L038, (6-(5-chloro-4-((4-(3-fluoro-1H-pyrazol-4-yl)phenyl)amino)pyrimidin-2-yl)-1-methyl-4,5,6,7-tetrahydro-1H-pyrrolo[2,3-c]pyridin-2-yl)(3,3-difluoroazetidin-1-yl)methanone], for which the IC50 was 50 to 500 nM against ROCK2 kinase and more than 4500 nM against ROCK1 kinase.
As to `CC(C)NC(=O)COc1cccc(-c2nc(Nc3ccc4[nH]ncc4c3)c3ccccc3n2)c1` [KD-025, reference compound], the results for the half-life in data set [2], in data set [3] and in data set [4] were 0.287 h, 1.52 h and 1.61 h, respectively.
On to `Cn1c(C(=O)N2CC(F)(F)C2)cc2c1CN(c1nc(Nc3ccc(-c4cn[nH]c4)cc3)cc(C(F)(F)F)n1)CC2` [Compound L041, (6-(4-((4-(1H-pyrazol-4-yl)phenyl)amino)-6-(trifluoromethyl)pyrimidin-2-yl)-1-methyl-4,5,6,7-tetrahydro-1H-pyrrolo[2,3-c]pyridin-2-yl)(3,3-difluoroazetidin-1-yl)methanone], for which the IC50 on ROCK2 kinase is 50 to 500 nM; against ROCK1 kinase, more than 4500 nM.
